Experimental data from ChEMBL document CHEMBL1150527, “Bifunctional antitumor agents: a DNA interactive enediyne from the pyrrolo[9,10-b]phenanthrene template” (Bioorg Med Chem Lett, 1997).

Key:
Type in all cases: nucleic-acid assay
Nucleic Acid [1] = assay: DNA cleavage activity using supercoiled bacteriophage (piX174Rf II) DNA at 10e-4 M concentration (5% control)
Nucleic Acid [2] = assay: DNA cleavage activity using supercoiled bacteriophage (piX174Rf III) DNA at 10e-3 M concentration (0% control)
Nucleic Acid [3] = assay: DNA cleavage activity using supercoiled bacteriophage (piX174Rf II) DNA at 10e-5 M concentration (5% control)
Nucleic Acid [4] = assay: DNA cleavage activity using supercoiled bacteriophage (piX174Rf I) DNA at 10e-3 M concentration (95% control)
Nucleic Acid [5] = assay: DNA cleavage activity using supercoiled bacteriophage (piX174Rf III) DNA at 10e-5 M concentration (0% control)
Nucleic Acid [6] = assay: DNA cleavage activity using supercoiled bacteriophage (piX174Rf II) DNA at 10e-3 M concentration (5% control)
Nucleic Acid [7] = assay: DNA cleavage activity using supercoiled bacteriophage (piX174Rf I) DNA at 10e-4 M concentration (95% control)
Nucleic Acid [8] = assay: DNA cleavage activity using supercoiled bacteriophage (piX174Rf I) DNA at 10e-5 M concentration (95% control)
Nucleic Acid [9] = assay: DNA cleavage activity using supercoiled bacteriophage (piX174Rf III) DNA at 10e-4 M concentration (0% control)

Structure (SMILES) | Cleavage (Nucleic Acid [1]) [%] | Cleavage (Nucleic Acid [2]) [%] | Cleavage (Nucleic Acid [3]) [%] | Cleavage (Nucleic Acid [4]) [%] | Cleavage (Nucleic Acid [5]) [%] | Cleavage (Nucleic Acid [6]) [%] | Cleavage (Nucleic Acid [7]) [%] | Cleavage (Nucleic Acid [8]) [%] | Cleavage (Nucleic Acid [9]) [%]
O=C(OCC1CC#C/C=C\C#CCC1)c1ccccc1 (stereo not drawn) | 22 | 3 | 7 | 15 | 0 | 82 | 78 | 93 | 0
O=C(OCC1CC#C/C=C\C#CCC1)c1cc2c3ccccc3c3ccccc3c2[nH]1 (stereo not drawn) | 55 | 5 | 21 | 7 | 0 | 88 | 45 | 79 | 0
